Key:
[1] = tested on: patients with Type 2 diabetes mellitus (T2DM); test: Average 7-point SMPG change from baseline to Week 30 (Example 2); format: in vivo, human; conditions: mITT population
Source text: Self-monitored plasma glucose (SMPG)”, as used herein, is in particular the “7-point Self Monitored Plasma Glucose”. “7-point Self Monitored Plasma Glucose” in particular refers to the measurement of plasma glucose seven times a day and calculation of the average plasma glucose concentration therefrom. The “7-point Self Monitored Plasma Glucose” value is in particular an average plasma glucose concentration including fasting and postprandial conditions. In particular, measurements of plasma glucose concentration are performed pre-breakfast, post-breakfast (e.g. 2-hour post-breakfast), pre-lunch, post-lunch (e.g. 2-hour post-lunch), pre-dinner, post-dinner (e.g. 2-hour post-dinner) and at bed-time.
The 7-point SMPG profile should be measured at the following 7 points: pre-prandial and 2 hours postprandial for breakfast, lunch, dinner and at bedtime. Two hours postprandial (breakfast, lunch and dinner) is defined as 2 hours after the start of the meal.
The patients are requested to perform 7-point SMPG profile measurement over a single 24-hour period on 2 Different Days in the Week Before V6 (Week 0), V15 (Week 12), and V21 (week 30, end of treatment assessment visit). All SMPG values measured on these days will be recorded in diary and transferred into the e-CRF.

patients with T2DM [2] = test: HbA1c change from baseline to Week 30 (Example 3, with or without metformin); format: in vivo, human
Method: For the eligibility and efficacy assessments of the study, HbA1c is measured by a certified level I “National Glycohemoglobin Standardization Program” (NGSP) central laboratory.
Methodology: This was an open-label, 1:1 randomized, active-controlled, 2-arm, 30-week treatment duration, parallel-group multinational and multicenter study. The randomization was stratified by value of HbA1cat Visit 5 (Week −1) (<8%, ≥8%) and metformin use at screening (Y, N).
Diagnosis and criteria for inclusion: Inclusion criteria: Patients with type 2 diabetes mellitus diagnosed for at least 1 year and inadequately controlled on their current antidiabetic treatment. Patients had to be treated with basal insulin for at least 6 months at a stable daily dose of 15 to 40 U, alone or combined with 1 or 2 oral anti-diabetic drugs ((metformin, an SU, a glinide, a DPP-4 inhibitor, or a SGLT-2 inhibitor) at a stable dose for at least 3 months. Key exclusion criteria for randomization (at the end of the run-in phase): HbA1c<7% or >10% at Visit 5 (week −1); mean fasting SMPG >140 mg/dL (7.8 mmol/L) for the 7 days before the randomization Visit (Visit 6); average insulin glargine daily dose <20 U or >50 U calculated for the last 3 days before Visit 6.
Efficacy analysis was based on modified intent-to-treat (mITT) population using efficacy assessment collected during the study, including those obtained after IMP discontinuation or introduction of rescue therapy. The mITT population consisted of all randomized patients who had both a baseline assessment and at least one post-baseline assessment of any primary or secondary efficacy variables.
The primary efficacy endpoint was analyzed using a mixed-effect model with repeated measures (MMRM). The MMRM model included the treatment groups, randomization strata, visit, treatment-by-visit interaction, and country as fixed-effect factors, and the baseline HbA1c-by-visit interaction as covariate.

patients with T2DM [3] = test: Patients with HbA1c ≤6.5% or <7% at Week 30 (Example 3); format: in vivo, human
Source text: (§1) Similar MMRM method or analysis of covariance (ANCOVA) was applied on continuous secondary efficacy endpoints and the Cochran-Mantei-Haenszel method stratified by randomization strata was applied for categorical efficacy endpoints.

patients with T2DM [4] = test: Body weight change from baseline to Week 30 (Example 3); format: in vivo, human
Source text: Body weight should be obtained with the patient wearing undergarments or very light clothing and no shoes, and with an empty bladder. The same scale should be used throughout the study, and calibrated on a regular basis as recommended by the manufacturer.
as §1

patients with T2DM [5] = test: Patients requiring rescue therapy (Example 3); format: in vivo, human
Source text: Routine fasting SMPG and central lab alerts on FPG (and HbA1c after Week 12) were set up to ensure that glycemic parameters remained under predefined threshold values. If values were above predefined thresholds, and no explanations were found, or appropriate actions failed, or a dose >60 U was necessary to decrease FPG and/or HbA1c below the threshold values, rescue therapy was to be introduced along with IMP and metformin (if taken). Newly initiated anti-diabetic medications, or an increase from baseline in background metformin dose were considered as a rescue therapy.

[6] = tested on: patients with Type 2 diabetes mellitus (T2DM); test: Pancreatic events adjudicated by PSAC (Example 2)
[7] = tested on: patients with Type 2 diabetes mellitus (T2DM); test: Increased calcitonin reported on AE form (Example 2); set-up: Patients with TEAE of increased calcitonin: dose or concentration left out as unconfirmed
[8] = on-treatment period, Safety population

For “Gly(A21)-Arg(B31)-Arg(B32)-human insulin [Insulin Glargine]”, the “Average of 7-point SMPG, change from baseline to Week 30, LS Mean (SE)” value ([1]; MMRM) was −2.66 (0.084) mmol/L, the “Average of 7-point SMPG, Week 30, Mean (SD)” value [1] was 7.75 (1.49) mmol/L and the “Average of 7-point SMPG, Week 30, Median” value [1] was 7.49 mmol/L. For the same substance, the “Mean HbA1c level at Week 30” value (patients with T2DM [2]; Example 3) was 7.5%, the “HbA1c change from baseline to Week 30, LS Mean (SE)” value (patients with T2DM [2]; MMRM, mITT population) was −0.62 (0.055) % and the “HbA1c at Week 30, Mean (SD)” value (patients with T2DM [2]; mITT population) was 7.48 (0.91) %. For the same substance, the “HbA1c at Week 30, Median” value (patients with T2DM [2]; mITT population) was 7.40%, the “Patients reaching HbA1c<7.0% at Week 30” value (patients with T2DM [3]; Example 3) was 29.6% and the “Patients reaching HbA1c≤[…] at Week 30” value (patients with T2DM [3]; Example 3) was 14.2%. For the same substance, the “Patients with HbA1c <7% at Week 30” value (patients with T2DM [3]; mITT population) was 108 (29.6%) Number (%), the “Patients with HbA1c ≤[…] at Week 30” value (patients with T2DM [3]; mITT population) was 52 (14.2%) Number (%) and the “Body weight, LS mean change from baseline to Week 30” value (patients with T2DM [4]; Example 3) was “+0.70 kg”. The “Body weight change from baseline to Week 30, LS Mean (SB)” value (patients with T2DM [4]; MMRM, mITT population) was 0.70 (0.178) kg, the “Body weight at Week 30, Mean (SD)” value (patients with T2DM [4]; mITT population) was 87.96 (15.08) kg and the “Body weight at Week 30, Median” value (patients with T2DM [4]; mITT population) was 85.90 kg. For the same substance, the “Patients who received rescue therapy, %” value (patients with T2DM [5]) was 6.0%, the “Patients who received rescue therapy, number” value (patients with T2DM [5]) was 22 patients and the “Cases of pancreatic cancer” value ([6]; Example 2) was “One”. For the same substance, the “Pancreatic events positively adjudicated by PSAC: Acute on chronic pancreatitis” value [6, 8] was 0 Number (%), the “Pancreatic events positively adjudicated by PSAC: Acute pancreatitis” value [6, 8] was 0 Number (%) and the “Pancreatic events positively adjudicated by PSAC: Chronic pancreatitis” value [6, 8] was 0 Number (%). The “Pancreatic events positively adjudicated by PSAC: Unknown pancreatitis” value [6, 8] was 0 Number (%), the “Patients with pancreatic events positively adjudicated by PSAC: Any with “Yes” for pancreatitis by PSAC” value [6, 8] was 0 Number (%) and the “Patients with TEAE of increased calcitonin” value ([7]; Example 2) was “One”. For the same substance, the “Events reported on the AE form for increased calcitonin (≥20 ng/L): Blood calcitonin increased” value [7, 8] was 1 (0.2%) n (%) and the “Patients with events reported on the AE form for increased calcitonin (≥20 ng/L): Any” value [7, 8] was 1 (0.2%) n (%).

— patent US12186374B2 (Sanofi-Aventis Deutschland GmbH, priority 2014, dated 2025)
